# According to PubChem BioAssay AID651703 (Broad Institute, 2012):
# Several values for one entry are separate records, joined by “and”; a condition that tells them apart may be missing. Equal entries are not always repeated.
# Target: Transforming acidic coiled-coil-containing protein 3 (Homo sapiens) (UniProt Q9Y6A5)
# Test: inhibition of ARNT PAS-B/TACC3 complex formation – biochemical, AlphaScreen, cherry-picked samples, confirmation (AID 651703);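 also: TACC3 partner is the GST-tagged E629A mutant dimer; hits lower the signal meaning they disrupt ARNT binding to TACC3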
# Settings: AlphaScreen His-ARNT PAS-B / GST-TACC3 binding, luminescence
row,Compound,AC50
1,O=C(Nc1nnc(C2=COCCO2)o1)c1ccc(Cl)cc1,17.7 µM
2,CCC(C)Nc1nc(-c2ccccn2)nc2ccccc12 (centres undefined),8.57 µM
3,CC(Oc1ccccc1)C(=O)Nc1nc(-c2ccccn2)cs1 (centres undefined),13.2 µM
4,Cc1cc(NC(c2ccc(Cl)cc2)c2ccc3cccnc3c2O)no1 (centres undefined),10.2 µM
5,NC1=CC(=O)C(=O)c2ccccc21,38.9 µM
6,C[C@H](NC(=O)c1ccco1)C(=O)Nc1nc(-c2ccccn2)cs1,8.23 µM
7,COC(=O)c1ccc(CSc2ccc3nnc(-c4ccccn4)n3n2)o1,17.4 µM
8,CNc1nc(-c2ccccn2)nnc1-c1ccccc1,< 0.5 µM
9,O=S(=O)(N[C@H]1CC[C@H](CCn2cc(-c3ccccn3)nn2)O[C@@H]1CO)c1cccc(F)c1,10.7 µM
10,N[C@H]1CC[C@@H](CCn2cc(-c3ccccn3)nn2)O[C@H]1CO,1.42 µM
11,Cc1sc2ncnc(N/N=C/c3ccccc3O)c2c1C,10.1 µM
12,COc1ccccc1NC(=O)CSc1ccc(-c2ccccn2)nn1,3.1 µM
13,COc1ccc([Si](C)(C)[C@@H]2[C@@H](CCO)O[C@]3(C(=O)N4c5c(cc(OC)cc53)C(C)=CC4(C)C)[C@H]2C)cc1,11.3 µM
14,c1ccc(-c2ccc(SCc3cccnc3)nn2)nc1,1.81 µM
15,O=S(=O)(c1ccc(Br)cc1)c1nc(-c2ccco2)oc1NCCCn1ccnc1,33.9 µM
16,O=S(=O)(N[C@H]1CC[C@@H](CCn2cc(-c3ccccn3)nn2)O[C@@H]1CO)c1cccc(Cl)c1,16.9 µM
17,COc1cccc(C(=O)Nc2nnc(-c3cccs3)o2)c1,21.4 µM
18,O=C(N[C@@H]1CC[C@@H](CCn2cc(-c3ccccn3)nn2)O[C@H]1CO)c1ccccc1,9.23 µM
19,O=C(Oc1c(CN2CCOCC2)cc(Cl)c2cccnc12)c1ccccc1Br,10.3 µM
20,Oc1ccc(Cl)cc1CNc1cccc2cccnc12,54.8 µM
21,O=C(O)CSc1cc(NS(=O)(=O)c2cccc([N+](=O)[O-])c2)c2ccccc2c1O,48.1 µM
22,Nn1c(SC/C=C/c2ccccc2)nnc1-c1ccccn1,5.62 µM
23,O=C(CSc1ccc2nnc(-c3ccccn3)n2n1)Nc1ccccc1C(F)(F)F,50.7 µM

row,Compound,AC50
1,CC(C)(C)c1ccc(CNc2nc(-c3ccccn3)nnc2-c2ccccc2)cc1,1.33 µM
2,c1ccc(-c2cnc(-c3ccccn3)nn2)cc1,3.23 µM
3,CCOC(=O)/C(=N/Nc1ccccc1OC)N1CCCc2ccccc21,17.3 µM
4,COc1ccc2nc(-c3ccccn3)[nH]c2c1,29 µM
5,Nc1ccc2nc(-c3ccccn3)[nH]c2c1,10.1 µM
6,COc1ccc(C2=Nn3c(nnc3-c3ccccn3)SC2)cc1,11.2 µM
7,COc1ccc(C2CC(=O)Oc3c(C(CCN4CCCCC4)c4ccc(N(C)C)cc4)c(OC)cc(OC)c32)cc1 (centres undefined),10.2 µM
8,O=C(Nc1nc(-c2ccccn2)cs1)c1ccc([N+](=O)[O-])o1,11.1 µM
9,O=C(CSc1ccc(-c2ccccn2)nn1)NC1CCCC1,2.64 µM
10,O=S(=O)(N[C@@H]1CC[C@H](CCn2cc(-c3ccccn3)nn2)O[C@H]1CO)c1cccc(F)c1,18.2 µM
11,O=C(NCCCn1ccnc1)C(=O)NCC1OCCN1S(=O)(=O)c1ccc(F)cc1 (centres undefined),3.5 µM
12,O=C(CN1C(=O)/C(=C\c2cccs2)SC1=S)Nc1cccc(C(=O)O)c1,26.3 µM
13,CCN(CC)c1ccc(C(=C2C=CC(=[N+](CC)CC)C=C2)c2ccc(N(CC)CC)cc2)cc1,0.734 µM
14,O=C(NCCCNCCCNC(=O)c1ccc(/C=N/O)nc1)c1ccc(/C=N/O)nc1,4.96 µM
15,Cn1cccc1C(=O)Nc1nc(-c2ccccn2)cs1,5.3 µM
16,Cc1cccc(Nc2nc(-c3ccccn3)nnc2-c2ccccc2)n1,< 0.5 µM
17,Oc1ccc(CN2CCC3CCCCC3C2)c2cccnc12 (centres undefined),1.22 µM
18,CCCC(=O)NC(c1ccccc1)c1ccc2cccnc2c1O (centres undefined),4.6 µM
19,CNc1nc(C(=O)O)nc(N2CCOCC2)n1,11.6 µM
20,O=C(NCCCn1ccnc1)C(F)(F)C(F)(F)C(=O)NCCCn1ccnc1,38.5 µM
21,COc1cccc(/C=N/Nc2nc3ccccc3[nH]2)c1O,26.6 µM
22,Cc1ccc2cc(C3C(C#N)=C(N)Oc4c3ccc3cccnc43)c(=O)[nH]c2c1 (centres undefined),7.43 µM
23,CC(=O)c1cccc(NC(=O)CSc2ccc(-c3ccccn3)nn2)c1,3.21 µM

row,Compound,AC50
1,O=C(Oc1ccc(Cl)c2cccnc12)c1cccnc1,9.58 µM
2,Cc1cc(NC(c2cccnc2)c2ccc3cccnc3c2O)no1 (centres undefined),1.02 µM
3,Cc1ccc(Nc2c(-c3ccccn3)nc3cccc(C)n23)cc1,3.62 µM
4,CS(=O)(=O)c1cccc(-c2nnc(NC(=O)c3ccc(S(=O)(=O)N4CCCC4)cc3)o2)c1,22.5 µM
5,O=C(N[C@H]1CC[C@H](CCn2cc(-c3ccccn3)nn2)O[C@H]1CO)c1ccncc1,14.4 µM
6,COc1ccc(C(=O)Cc2nnc(C)s2)c(OC)c1,67.3 µM
7,CN(CC(=O)O)Cc1nc2ccccc2[nH]1,7.77 µM
8,c1ccc(CCNc2nc(-c3ccccn3)nnc2-c2ccccc2)cc1,0.513 µM
9,O=C(Nc1nc(-c2ccccn2)cs1)c1cc(S(=O)(=O)N2CCOCC2)ccc1F,4.43 µM
10,Cc1cc(=O)[nH]c(-n2[nH]c3c(c2=O)CCCC3)n1,39.3 µM
11,O=C(Nc1nnc(-c2ccco2)o1)c1ccc(S(=O)(=O)N2CCOCC2)cc1,36.1 µM
12,O=C(O)C1CCCCC1C(=O)NCCCn1ccnc1 (centres undefined),54.4 µM
13,Oc1cccc(/C=N/Nc2ccc(Cl)nn2)c1O,1.5 µM
14,COc1ccc(NC(=O)N[C@@H]2CC[C@@H](CCn3cc(-c4ccccn4)nn3)O[C@H]2CO)cc1,28.6 µM
15,O=C(O)CSc1c(O)c2ccccc2[nH]c1=O,34.5 µM
16,Oc1c(CN2CCCCC2)cc(Br)c2cccnc12,0.995 µM
17,O=C(Nc1nnc(-c2ccccn2)o1)c1cccc(Cl)c1,30.2 µM
18,O=C(N[C@H]1CC[C@H](CCn2cc(-c3ccccn3)nn2)O[C@@H]1CO)c1ccncc1,14.8 µM
19,CC(C)(C)C1=CC(=Nc2ccccc2N)C=C(C(C)(C)C)C1=O,1.47 µM
20,COc1ccccc1Nc1cc2cc(Br)ccc2c(=O)[nH]1,16.8 µM
21,CO[C@@H]1CN(C)C(=O)c2cc(NS(=O)(=O)CC(F)(F)F)ccc2OC[C@@H](C)N(C(=O)c2ccc3c(c2)OCO3)C[C@@H]1C,58 µM
22,O=c1oc2c3c4c(cc2s1)CCCN4CCC3,26.1 µM
23,CCc1ccc2c(c1)C1(NN=C(c3ccc(C)cc3)S1)C(=O)N2 (centres undefined),1.52 µM

row,Compound,AC50
1,O=C(CNCc1ccccn1)Nc1cc(C(F)(F)F)ccc1N1CCOCC1,17.4 µM
2,COc1cc([N+](=O)[O-])cc(/C=N/NC(=O)Cn2cncn2)c1O,5.87 µM
3,O=c1cc(C(F)(F)F)nc(-n2[nH]c3c(c2=O)CCCC3)[nH]1,28 µM
4,Cc1ccc(NC(=O)CSc2ccc(-c3ccccn3)nn2)cc1F,3.98 µM
5,c1ccc(-c2nnc(-c3ccccn3)nc2NCCN2CCOCC2)cc1,0.593 µM
6,Cc1cccc(NC(=O)CSc2ccc(-c3ccccn3)nn2)c1C,2.86 µM
7,O=C(O)c1ccc(C2CCCCC2)cn1,3.12 µM
8,c1ccc(-c2n[nH]c(-c3ccccn3)n2)cc1,11.6 µM
9,CCOC(=O)C(NCc1ccccn1)(NC(=O)c1cccnc1)C(F)(F)F (centres undefined),29.8 µM
10,c1ccc(-c2nnc(SCc3nc4ccccc4[nH]3)n2Cc2ccco2)nc1,19.8 µM
11,O=S(=O)(N[C@@H]1CC[C@H](CCn2cc(-c3ccccn3)nn2)O[C@H]1CO)c1cccc(Cl)c1,22 µM
12,O=C(CSc1cccc2cccnc12)OCC(=O)c1ccccc1,37.3 µM
13,O=S(=O)(N[C@H]1CC[C@@H](CCn2cc(-c3ccccn3)nn2)O[C@H]1CO)c1cccc(Cl)c1,23.4 µM
14,CCOc1ccc(C(=O)CCNC(Cc2cnc[nH]2)C(=O)O)cc1 (centres undefined),41.2 µM
15,O=C(NCCCn1ccnc1)c1ccc2nccnc2c1,67.5 µM
16,COc1cccc(C(=O)Oc2c(CN3CCOCC3)cc(Cl)c3cccnc23)c1,10.9 µM
17,O=Nc1ccc(O)c2ncccc12,13.6 µM
18,O=C(N[C@@H]1CC[C@H](CCn2cc(-c3ccccn3)nn2)O[C@@H]1CO)c1ccncc1,8.23 µM
19,COC(=O)c1ccccc1-c1ccc(C(c2c(C)[nH][nH]c2=O)c2c(C)[nH][nH]c2=O)o1,15.7 µM
20,Oc1c(C(Nc2cccc(C(F)(F)F)c2)c2ccncc2)ccc2cccnc12 (centres undefined),0.575 µM
21,c1ccc(-c2nn[nH]n2)nc1,5.22 µM
22,CCCCC(=O)NC(c1ccc(N(C)C)cc1)c1ccc2cccnc2c1O (centres undefined),2.63 µM
23,O=c1[nH]c(O)c(N=Nc2cc([N+](=O)[O-])ccc2O)c(=O)[nH]1,25.5 µM

row,Compound,AC50
1,Cc1ccc(Nc2nc(-c3ccccn3)nnc2-c2ccccc2)cn1,< 0.5 µM
2,Clc1cccc(-c2ccc(CNCc3ccccn3)o2)c1,21.2 µM
3,COc1ccc(CCNC(=O)CSc2nnc3ccc(-c4ccccn4)nn23)cc1,33.5 µM
4,Cc1ccc(C)c(CSc2ccc3nnc(-c4ccccn4)n3n2)c1,23.3 µM
5,C=CCSc1nnc(-c2cccc3ccccc23)o1,5.8 µM
6,CCN(CC)c1ccc(/C=N/NC(=O)c2cnccn2)c(O)c1,11.3 µM
7,Cc1cccc(C)c1Nc1c(-c2ccccn2)nc2ccccn12,8.6 µM
8,CC(C)(C)CCNc1nc(-c2ccccn2)nnc1-c1ccccc1,0.717 µM and < 0.5 µM
9,O=C(N/N=C/c1ccccc1O)C1SCCCS1,22.6 µM
10,COc1cc(/C=N/NC(=O)c2cncc(Br)c2)cc([N+](=O)[O-])c1O,42 µM
11,Oc1ccc(/C=N/Nc2ccc(Cl)nn2)c(O)c1O,0.702 µM
12,O=[N+]([O-])c1ccc(O)c(-c2nn[nH]n2)c1,14 µM
13,Cc1cccc(CNC(=O)c2cc(-c3ccccc3)on2)c1,23.4 µM
14,CCC(=O)NC(c1ccc(C)cc1)c1ccc2cccnc2c1O (centres undefined),4.71 µM
15,O=C(Nc1ccccc1C(=O)Nc1ccccc1C(=O)O)c1ccccc1,65.3 µM
16,O=C(Nc1nnc(-c2cccs2)o1)c1ccco1,48.4 µM
17,COc1ccc2ccccc2c1CNCc1ccccn1,24.8 µM
18,O=S(=O)(N[C@H]1CC[C@H](CCn2cc(-c3ccccn3)nn2)O[C@H]1CO)c1cccc(F)c1,21.8 µM
19,O=C(CSc1ccc(-c2ccccn2)nn1)NCc1ccc(F)cc1,6.65 µM
20,CN1CCN(C2CCN(Cc3ccc(O)c4ncccc34)CC2)CC1,2.3 µM
21,O=S(=O)(N[C@H]1CC[C@H](CCn2cc(-c3ccccn3)nn2)O[C@@H]1CO)c1cccc(Cl)c1,19.2 µM
22,O=C(CSc1n[nH]c(-c2ccccn2)n1)Nc1ccc(Cl)cc1,2.08 µM
